Source: ChEMBL document CHEMBL5291721, “A preclinical secondary pharmacology resource illuminates target-adverse drug reaction associations of marketed drugs” (Nat Commun, 2023)

Columns and labels:
[1] = target: 5-hydroxytryptamine receptor 2B (Homo sapiens, UniProt P41595); format: functional, cell-based
[2] = target: Voltage-gated inwardly rectifying potassium channel KCNH2 (Homo sapiens, UniProt Q12809); format: functional
[3] = target: T1, Alpha-2A adrenergic receptor (Homo sapiens, UniProt P08913)
T1 sequence (P08913 whole entry): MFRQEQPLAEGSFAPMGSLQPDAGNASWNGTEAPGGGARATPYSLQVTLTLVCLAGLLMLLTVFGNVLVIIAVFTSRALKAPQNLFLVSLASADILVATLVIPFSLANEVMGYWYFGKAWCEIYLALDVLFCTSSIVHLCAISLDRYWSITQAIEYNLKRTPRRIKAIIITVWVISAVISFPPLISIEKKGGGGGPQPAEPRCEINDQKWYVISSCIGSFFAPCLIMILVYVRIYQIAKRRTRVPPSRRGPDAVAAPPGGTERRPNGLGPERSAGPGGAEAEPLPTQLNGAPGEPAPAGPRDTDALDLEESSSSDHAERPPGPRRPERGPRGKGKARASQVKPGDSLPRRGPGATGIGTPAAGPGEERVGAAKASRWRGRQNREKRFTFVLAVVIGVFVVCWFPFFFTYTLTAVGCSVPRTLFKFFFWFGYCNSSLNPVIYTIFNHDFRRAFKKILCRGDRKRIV

Thromboxane A2 receptor [4] = target: T2, Thromboxane A2 receptor (Homo sapiens, UniProt P21731); format: functional, cell-based
T2 sequence (P21731 whole entry): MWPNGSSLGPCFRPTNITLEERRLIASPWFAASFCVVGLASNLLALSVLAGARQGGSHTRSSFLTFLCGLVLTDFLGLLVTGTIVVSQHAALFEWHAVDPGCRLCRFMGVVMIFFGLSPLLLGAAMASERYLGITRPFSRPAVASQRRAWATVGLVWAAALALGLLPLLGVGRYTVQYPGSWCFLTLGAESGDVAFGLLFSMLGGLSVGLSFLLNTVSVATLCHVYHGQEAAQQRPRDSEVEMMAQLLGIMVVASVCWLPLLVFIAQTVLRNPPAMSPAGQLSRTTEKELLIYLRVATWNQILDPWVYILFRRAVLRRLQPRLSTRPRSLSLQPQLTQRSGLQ

[5] = target: T3, Amine oxidase [flavin-containing] A (Homo sapiens, UniProt P21397); format: functional
T3 sequence (P21397 whole entry): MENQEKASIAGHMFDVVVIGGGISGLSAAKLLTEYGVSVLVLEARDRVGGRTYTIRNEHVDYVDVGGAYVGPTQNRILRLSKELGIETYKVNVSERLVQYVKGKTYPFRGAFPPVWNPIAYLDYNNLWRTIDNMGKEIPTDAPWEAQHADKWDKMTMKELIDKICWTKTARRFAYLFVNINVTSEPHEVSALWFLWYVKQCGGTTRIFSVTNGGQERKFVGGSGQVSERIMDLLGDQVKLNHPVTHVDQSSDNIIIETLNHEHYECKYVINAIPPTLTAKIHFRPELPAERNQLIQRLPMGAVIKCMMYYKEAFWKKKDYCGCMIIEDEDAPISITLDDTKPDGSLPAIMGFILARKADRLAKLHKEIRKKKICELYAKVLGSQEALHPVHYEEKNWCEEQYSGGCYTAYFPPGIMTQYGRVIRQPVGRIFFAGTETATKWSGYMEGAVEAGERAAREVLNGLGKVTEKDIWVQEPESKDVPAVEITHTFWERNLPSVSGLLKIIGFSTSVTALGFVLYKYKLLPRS

Thromboxane A2 receptor [6] = target: T2, Thromboxane A2 receptor; format: functional, cell-based; remark: listed apart in the source
Histamine H3 receptor = Histamine H3 receptor (Homo sapiens, UniProt Q9Y5N1)
Chain of Histamine H3 receptor (Q9Y5N1 whole entry): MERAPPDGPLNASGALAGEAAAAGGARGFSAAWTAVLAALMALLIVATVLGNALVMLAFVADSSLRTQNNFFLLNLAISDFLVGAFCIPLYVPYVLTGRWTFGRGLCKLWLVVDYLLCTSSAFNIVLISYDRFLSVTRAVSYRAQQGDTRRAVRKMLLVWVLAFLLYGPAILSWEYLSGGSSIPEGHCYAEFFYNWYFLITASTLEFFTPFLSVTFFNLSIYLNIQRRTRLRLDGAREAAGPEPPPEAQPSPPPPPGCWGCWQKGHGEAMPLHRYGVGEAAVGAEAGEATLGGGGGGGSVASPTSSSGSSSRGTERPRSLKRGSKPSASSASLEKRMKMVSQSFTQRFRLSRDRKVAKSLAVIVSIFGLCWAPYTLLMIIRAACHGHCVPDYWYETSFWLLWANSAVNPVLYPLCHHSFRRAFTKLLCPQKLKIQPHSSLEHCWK

[7] = target: 3',5'-cyclic-AMP phosphodiesterase 4A (Homo sapiens, UniProt P27815); format: functional
[8] = target: cGMP-inhibited 3',5'-cyclic phosphodiesterase 3A (Homo sapiens, UniProt Q14432); format: functional
Acetylcholinesterase = Acetylcholinesterase (Homo sapiens, UniProt P22303); format: functional
Chain of Acetylcholinesterase (P22303 whole entry): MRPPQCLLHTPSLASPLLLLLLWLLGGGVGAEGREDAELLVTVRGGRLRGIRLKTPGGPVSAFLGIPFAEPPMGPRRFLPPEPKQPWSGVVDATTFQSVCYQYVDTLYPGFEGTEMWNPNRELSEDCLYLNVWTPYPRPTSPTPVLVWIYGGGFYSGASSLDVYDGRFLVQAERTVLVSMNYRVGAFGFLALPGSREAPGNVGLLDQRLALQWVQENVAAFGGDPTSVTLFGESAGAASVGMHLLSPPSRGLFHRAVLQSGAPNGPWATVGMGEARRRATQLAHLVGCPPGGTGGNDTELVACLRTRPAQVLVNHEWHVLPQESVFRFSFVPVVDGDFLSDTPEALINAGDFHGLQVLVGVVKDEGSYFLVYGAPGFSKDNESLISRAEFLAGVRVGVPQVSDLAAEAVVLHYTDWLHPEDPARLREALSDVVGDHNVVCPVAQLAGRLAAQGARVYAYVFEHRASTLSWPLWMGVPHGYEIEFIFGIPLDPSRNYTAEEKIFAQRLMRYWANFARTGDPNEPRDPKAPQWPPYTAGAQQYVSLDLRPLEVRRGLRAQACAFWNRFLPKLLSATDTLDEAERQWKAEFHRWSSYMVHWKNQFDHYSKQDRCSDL

[9] = target: Vascular endothelial growth factor receptor 2 (Homo sapiens, UniProt P35968); format: functional
Chain of Vascular endothelial growth factor receptor 2 (P35968 whole entry): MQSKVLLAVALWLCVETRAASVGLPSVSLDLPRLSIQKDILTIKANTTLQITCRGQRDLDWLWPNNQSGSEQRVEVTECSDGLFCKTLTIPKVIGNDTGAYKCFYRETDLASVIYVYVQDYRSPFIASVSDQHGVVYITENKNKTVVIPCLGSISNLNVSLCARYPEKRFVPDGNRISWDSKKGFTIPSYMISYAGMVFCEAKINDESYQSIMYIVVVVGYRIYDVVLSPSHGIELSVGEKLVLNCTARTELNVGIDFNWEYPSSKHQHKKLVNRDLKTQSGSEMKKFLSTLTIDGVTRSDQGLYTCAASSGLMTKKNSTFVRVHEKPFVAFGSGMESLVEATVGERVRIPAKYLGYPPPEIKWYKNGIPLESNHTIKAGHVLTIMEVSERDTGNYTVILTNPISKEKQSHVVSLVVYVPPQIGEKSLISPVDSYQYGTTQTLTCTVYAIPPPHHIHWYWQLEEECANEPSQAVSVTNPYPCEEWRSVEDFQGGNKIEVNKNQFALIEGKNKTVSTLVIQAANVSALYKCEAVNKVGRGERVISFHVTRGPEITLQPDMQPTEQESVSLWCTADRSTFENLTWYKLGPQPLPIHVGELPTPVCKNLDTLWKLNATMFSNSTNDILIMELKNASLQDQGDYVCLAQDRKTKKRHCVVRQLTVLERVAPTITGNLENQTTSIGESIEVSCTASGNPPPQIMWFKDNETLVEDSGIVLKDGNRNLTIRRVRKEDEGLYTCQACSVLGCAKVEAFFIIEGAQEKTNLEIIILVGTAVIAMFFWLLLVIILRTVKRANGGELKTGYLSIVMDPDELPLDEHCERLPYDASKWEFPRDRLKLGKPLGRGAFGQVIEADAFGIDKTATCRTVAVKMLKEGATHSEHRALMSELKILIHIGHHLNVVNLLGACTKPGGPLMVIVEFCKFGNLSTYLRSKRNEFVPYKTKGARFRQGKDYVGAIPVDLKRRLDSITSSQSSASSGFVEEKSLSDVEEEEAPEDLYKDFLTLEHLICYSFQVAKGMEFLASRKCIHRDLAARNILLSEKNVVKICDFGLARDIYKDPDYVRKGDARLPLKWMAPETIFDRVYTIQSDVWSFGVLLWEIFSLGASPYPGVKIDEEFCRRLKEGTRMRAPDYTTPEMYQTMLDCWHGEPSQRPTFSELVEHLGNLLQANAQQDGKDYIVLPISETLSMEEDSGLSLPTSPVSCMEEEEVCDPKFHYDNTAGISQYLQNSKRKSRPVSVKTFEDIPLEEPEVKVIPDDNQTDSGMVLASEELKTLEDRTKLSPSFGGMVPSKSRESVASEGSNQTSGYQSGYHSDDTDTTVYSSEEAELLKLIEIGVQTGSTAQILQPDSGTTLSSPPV

Prothrombin = Prothrombin (Homo sapiens, UniProt P00734); format: functional
[10] = target: Sodium-dependent dopamine transporter (Homo sapiens, UniProt Q01959)
Chain of Sodium-dependent dopamine transporter (Q01959 whole entry): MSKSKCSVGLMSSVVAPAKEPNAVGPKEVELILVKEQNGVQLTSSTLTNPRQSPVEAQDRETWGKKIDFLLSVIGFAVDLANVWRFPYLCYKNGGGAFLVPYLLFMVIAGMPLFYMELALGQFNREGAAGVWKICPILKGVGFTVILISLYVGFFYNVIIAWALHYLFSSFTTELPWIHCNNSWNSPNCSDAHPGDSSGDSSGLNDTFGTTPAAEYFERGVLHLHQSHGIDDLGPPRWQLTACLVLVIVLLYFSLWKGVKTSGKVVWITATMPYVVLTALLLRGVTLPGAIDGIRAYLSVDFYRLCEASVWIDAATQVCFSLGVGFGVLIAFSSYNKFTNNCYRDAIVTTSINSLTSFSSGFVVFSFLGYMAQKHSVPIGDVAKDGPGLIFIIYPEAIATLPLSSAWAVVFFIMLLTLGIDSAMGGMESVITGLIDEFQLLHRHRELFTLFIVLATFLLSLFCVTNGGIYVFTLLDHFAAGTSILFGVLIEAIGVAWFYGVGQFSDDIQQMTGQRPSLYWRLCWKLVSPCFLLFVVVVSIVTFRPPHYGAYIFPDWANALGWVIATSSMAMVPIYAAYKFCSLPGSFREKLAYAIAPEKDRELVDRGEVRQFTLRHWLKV

[11] = target: T4, Muscarinic acetylcholine receptor M2 (Homo sapiens, UniProt P08172)
T4 sequence (P08172 whole entry): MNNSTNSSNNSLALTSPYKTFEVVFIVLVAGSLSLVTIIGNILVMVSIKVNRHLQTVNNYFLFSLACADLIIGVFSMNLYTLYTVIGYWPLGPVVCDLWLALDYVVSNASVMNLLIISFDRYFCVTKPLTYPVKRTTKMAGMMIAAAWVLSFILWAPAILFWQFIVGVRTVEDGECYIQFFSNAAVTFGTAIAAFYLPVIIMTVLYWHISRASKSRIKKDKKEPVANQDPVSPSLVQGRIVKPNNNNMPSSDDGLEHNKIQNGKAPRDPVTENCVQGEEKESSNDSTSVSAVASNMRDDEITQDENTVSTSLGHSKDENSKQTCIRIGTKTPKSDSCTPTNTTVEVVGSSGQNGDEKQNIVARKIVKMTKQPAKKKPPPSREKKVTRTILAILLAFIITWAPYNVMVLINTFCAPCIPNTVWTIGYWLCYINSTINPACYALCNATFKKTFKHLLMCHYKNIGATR

[12] = target: T5, 5-hydroxytryptamine receptor 1A (Homo sapiens, UniProt P08908)
T5 sequence (P08908 whole entry): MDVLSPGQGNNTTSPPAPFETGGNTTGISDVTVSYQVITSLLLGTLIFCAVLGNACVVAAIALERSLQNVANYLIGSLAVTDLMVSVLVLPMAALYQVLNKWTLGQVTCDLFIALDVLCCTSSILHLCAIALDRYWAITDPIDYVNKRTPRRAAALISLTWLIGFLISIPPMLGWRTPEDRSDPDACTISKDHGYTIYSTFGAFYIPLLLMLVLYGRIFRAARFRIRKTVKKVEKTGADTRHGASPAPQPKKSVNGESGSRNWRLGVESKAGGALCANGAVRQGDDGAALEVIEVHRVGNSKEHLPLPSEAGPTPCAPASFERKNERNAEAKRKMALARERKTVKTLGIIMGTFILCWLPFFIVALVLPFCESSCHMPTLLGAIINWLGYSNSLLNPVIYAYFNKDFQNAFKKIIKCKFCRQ
Also: assay procedure not described here.

Chain of Voltage-gated inwardly rectifying potassium channel KCNH2 (Q12809 whole entry): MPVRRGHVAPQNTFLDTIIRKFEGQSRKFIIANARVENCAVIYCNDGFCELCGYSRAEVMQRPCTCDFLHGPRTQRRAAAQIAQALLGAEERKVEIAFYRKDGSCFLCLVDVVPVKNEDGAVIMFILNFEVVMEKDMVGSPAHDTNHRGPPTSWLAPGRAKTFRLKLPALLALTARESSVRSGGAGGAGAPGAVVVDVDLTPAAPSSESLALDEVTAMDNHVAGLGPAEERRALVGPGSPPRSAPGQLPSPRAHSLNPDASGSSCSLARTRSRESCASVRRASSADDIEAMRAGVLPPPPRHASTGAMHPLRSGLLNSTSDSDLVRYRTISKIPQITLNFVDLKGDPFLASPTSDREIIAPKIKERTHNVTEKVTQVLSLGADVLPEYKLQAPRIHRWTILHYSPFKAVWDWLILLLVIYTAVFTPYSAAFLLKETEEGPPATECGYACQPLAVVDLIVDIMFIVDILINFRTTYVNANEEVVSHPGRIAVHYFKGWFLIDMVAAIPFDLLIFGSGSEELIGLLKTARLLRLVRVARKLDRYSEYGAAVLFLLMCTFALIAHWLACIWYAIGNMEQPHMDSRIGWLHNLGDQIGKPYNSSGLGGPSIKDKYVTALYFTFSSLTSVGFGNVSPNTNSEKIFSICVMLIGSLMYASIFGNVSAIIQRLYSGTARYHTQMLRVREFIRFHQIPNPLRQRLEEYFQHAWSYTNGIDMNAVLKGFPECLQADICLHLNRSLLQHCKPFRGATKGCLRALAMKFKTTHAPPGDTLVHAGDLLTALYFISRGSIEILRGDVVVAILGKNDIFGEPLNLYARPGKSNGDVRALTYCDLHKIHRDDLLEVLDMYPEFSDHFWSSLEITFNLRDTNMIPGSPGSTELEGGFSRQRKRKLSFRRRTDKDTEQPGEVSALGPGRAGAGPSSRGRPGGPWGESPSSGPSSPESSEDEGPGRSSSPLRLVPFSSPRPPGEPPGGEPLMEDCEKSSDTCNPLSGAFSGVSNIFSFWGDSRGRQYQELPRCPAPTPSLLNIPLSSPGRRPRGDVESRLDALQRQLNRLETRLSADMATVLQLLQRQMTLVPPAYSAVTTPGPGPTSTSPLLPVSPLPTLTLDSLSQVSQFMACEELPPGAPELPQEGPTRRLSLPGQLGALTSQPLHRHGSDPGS
Chain of 5-hydroxytryptamine receptor 2B (P41595 whole entry): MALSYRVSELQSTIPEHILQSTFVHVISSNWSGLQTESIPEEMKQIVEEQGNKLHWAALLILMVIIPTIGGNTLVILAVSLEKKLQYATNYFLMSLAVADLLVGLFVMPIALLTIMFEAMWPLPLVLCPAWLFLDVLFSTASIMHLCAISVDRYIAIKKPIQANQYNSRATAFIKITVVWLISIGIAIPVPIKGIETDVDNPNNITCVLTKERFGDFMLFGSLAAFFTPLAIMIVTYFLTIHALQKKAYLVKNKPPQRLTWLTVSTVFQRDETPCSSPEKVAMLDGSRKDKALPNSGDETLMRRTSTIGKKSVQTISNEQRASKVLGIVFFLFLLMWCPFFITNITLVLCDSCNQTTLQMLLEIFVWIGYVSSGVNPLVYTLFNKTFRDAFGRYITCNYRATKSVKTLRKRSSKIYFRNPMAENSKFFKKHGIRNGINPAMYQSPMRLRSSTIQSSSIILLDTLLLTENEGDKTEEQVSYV

Structure (SMILES) | AC50 [1] [µM] | AC50 [2] [µM] | AC50 [3] [µM] | AC50 (Thromboxane A2 receptor [4]) [µM] | AC50 [5] [µM] | AC50 (Thromboxane A2 receptor [6]) [µM] | AC50 (Histamine H3 receptor) [µM] | AC50 [7] [µM] | AC50 [8] [µM] | AC50 (Acetylcholinesterase) [µM] | AC50 [9] [µM] | AC50 (Prothrombin) [µM] | AC50 [10] [µM] | AC50 [11] [µM] | AC50 [12] [µM]
Cc1cc2c(cc1S(N)(=O)=O)S(=O)(=O)CCC2 | > 30 | > 30 | > 30 | > 30 | > 30 | > 30 | > 30 | > 30 | > 30 | > 30 | > 30 | > 30 | > 30 | > 30 | > 30
C[C@H](N[C@@H](CCc1ccccc1)C(=O)O)C(=O)N1Cc2ccccc2C[C@H]1C(=O)O | > 30 |  | > 30 | > 30 | > 30 | > 30 | > 30 | > 30 | > 30 | > 30 | > 30 | > 30 | > 30 | > 30 | > 30
O=C(O)[C@@H]1C[C@@H](O)CN1 | > 30 | > 30 | > 30 | > 30 | > 30 | > 30 | > 30 | > 30 | > 30 | > 30 | > 30 | > 30 | > 30 | > 30 | > 30
CC1(C)S[C@@H]2[C@H](/N=C/N3CCCCCC3)C(=O)N2[C@H]1C(=O)O [AMDINOCILLIN] | > 30 |  | > 30 | > 30 | > 30 | > 30 | > 30 | > 30 | > 30 | > 30 | > 30 | > 30 | > 30 | > 30 | > 30
CC(=O)[C@]1(N)Cc2c(O)c3c(c(O)c2[C@@H](O[C@H]2C[C@H](O)[C@H](O)CO2)C1)C(=O)c1ccccc1C3=O [AMRUBICIN] | > 30 |  | > 30 | > 1 | > 30 | 11.8 | > 30 | > 30 | > 30 | > 30 | > 30 | > 30 | > 30 | > 30 | > 30
NC(=O)[C@@H]1CC[C@@H]2CN1C(=O)N2OS(=O)(=O)O [AVIBACTAM] | > 30 | > 30 | > 30 | > 30 | > 30 | > 30 | > 30 | > 30 | > 30 | > 30 | > 30 | > 30 | > 30 | > 30 | > 30
CC(=O)OC[C@H]1O[C@@H](n2ncc(=O)[nH]c2=O)[C@H](OC(C)=O)[C@@H]1OC(C)=O [AZARIBINE] | > 30 |  | > 30 | > 30 | > 30 | > 30 | > 30 | > 30 | > 30 | > 30 | > 30 | > 30 | > 30 | > 30 | > 30
CC(C)(C)NC(=O)N[C@H](C(=O)N1C[C@H]2[C@@H]([C@H]1C(=O)NC(CC1CCC1)C(=O)C(N)=O)C2(C)C)C(C)(C)C (some centres not stated) [BOCEPREVIR] | > 30 | > 30 | > 30 | > 30 | > 30 | > 30 | > 30 | > 30 | > 30 | > 30 | > 30 | > 30 | > 30 | > 30 | > 30
O=C(O)COCCN1CCN(C(c2ccccc2)c2ccc(Cl)cc2)CC1 (configuration not stated) [CETIRIZINE] |  |  | > 30 | > 30 | > 30 | > 30 | > 30 | > 30 | > 30 |  | > 30 | > 30 |  |  | > 30
C=C1CC[C@H](O)C/C1=C/C=C1\CCC[C@]2(C)[C@@H]([C@H](C)CCCC(C)C)CC[C@@H]12 [CHOLECALCIFEROL] | > 30 | > 30 | > 30 | 22.4 | > 30 | > 30 | > 30 | > 30 | > 3 | > 30 | > 30 | > 30 | > 30 | > 30 | > 30
CC(O)(P(=O)(O)O)P(=O)(O)O [ETIDRONIC ACID] | > 30 |  | > 30 | > 30 | > 30 | > 30 | > 30 | > 30 | > 30 | > 30 | > 30 | > 30 | > 30 | > 30 | > 30
CCC[C@H](N[C@@H](C)C(=O)N1[C@H](C(=O)O)C[C@@H]2CCCC[C@@H]21)C(=O)OCC [PERINDOPRIL] | > 30 |  | > 30 | > 30 | > 30 | > 30 | > 30 | > 30 | > 30 | > 30 | > 30 | > 30 | > 30 | > 30 | > 30
NNCCc1ccccc1 [PHENELZINE] | > 30 | > 30 | 25.4 | > 30 |  | > 30 | > 30 | > 30 | > 30 | > 30 | > 30 | > 30 | > 30 | > 30 | 
